Test results reported in patent US20030134859A1 (SANKYO COMPANY, LIMITED, priority 2000, published 2003).
Where a name gives a salt, the structure may show the parent alone.

Tests used:
TNF-α production = assay: Inhibitory activity against cytokine (TNF-α) production in LPS-stimulated RAW264.7 cells; assay type: cell-based, mouse; details: Mus musculus, RAW264.7, 15 h, 1 μM test compound, LPS 10 ng/mL
Method in brief: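 Mouse RAW264.7 macrophages (5,000 cells/well) stimulated with 10 ng/mL LPS (final) and treated with test compound at 1 μM final for 15 h at 37 °C. Supernatant mouse TNF-α measured by ELISA; % inhibition = 100−(A−B)/(C−B)×100, using unstimulated and LPS-only controls.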

Rat white adipocytes = assay: Stimulation of differentiation of the adipocytes (Oil Red O); assay type: cell-based; details: 100 nM test compound, 5 days, Oil Red O ABS550, control = 100%, blank = 0%, Table 7; for activity at 0.1 µM: Rattus norvegicus, Adipocyte, 120 h, read-out: Rate of Differentiation (%)
Method in brief: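 Rat white adipocytes, 5,000 cells/well, cultured 5 days in differentiation-inducing medium with test compound at final 100 nM (0.1% DMSO). Cells fixed, stained with Oil Red O, dye extracted in DMSO and read at 550 nm; differentiation rate expressed relative to vehicle control (100%) and cell-free blank (0%).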

Row | Compound | inhibition at 1 µM (TNF-α production) | activity at 0.1 µM (Rat white adipocytes) | Rate of Differentiation (%) (Rat white adipocytes)
1 | O=C(Nc1ccc(-c2ccccc2)cc1)c1cc([N+](=O)[O-])ccc1Cl [Example 2, N-(4-Phenylphenyl)-(2-chloro-5-nitrophenyl)carboxamide] | 24.5% | 127% | 
2 | Cc1cnc(NC(=O)c2cc([N+](=O)[O-])ccc2Cl)s1 [Example 4, N-(5-Methylthiazol-2-yl)-(2-chloro-5-nitrophenyl)carboxamide] | 18.5% | 128% | 
3 | O=C(Nc1ccc(-c2ccccn2)cc1)c1cc([N+](=O)[O-])ccc1Cl [Example 8, N-[4-(2-Pyridyl)phenyl]-(2-chloro-5-nitrophenyl)carboxamide] | 18.9% | 114% | 
4 | CCCCCc1ccc(NC(=O)c2cc([N+](=O)[O-])ccc2Cl)cc1 [Example 16, N-(4-Pentylphenyl)-(2-chloro-5-nitrophenyl)carboxamide] | 19% | 136% | 
5 | CC(C)(C)c1cc(NC(=O)c2cc([N+](=O)[O-])ccc2Cl)cc(C(C)(C)C)c1O [Example 29, N-(3,5-Di-t-butyl-4-hydroxyphenyl)-(2-chloro-5-nitrophenyl)carboxamide] | 22.9% | 111% | 
6 | O=C(Nc1nc(-c2cccnc2)cs1)c1cc([N+](=O)[O-])ccc1Cl [Example 37, N-[4-(3-Pyridyl)thiazol-2-yl)-(2-chloro-5-nitrophenyl)carboxamide] | 16% | 114% | 
7 | Cc1ccccc1-c1csc(NC(=O)c2cc([N+](=O)[O-])ccc2Cl)n1 [Example 39, N-[4-(2-Methylphenyl)thiazol-2-yl]-(2-chloro-5-nitrophenyl)carboxamide] | 29.8% |  | 
8 | Cc1cccc(-c2csc(NC(=O)c3cc([N+](=O)[O-])ccc3Cl)n2)c1 [Example 40, N-[4-(3-Methylphenyl)thiazol-2-yl)-(2-chloro-5-nitrophenyl)carboxamide] | 27.1% | 122% | 
9 | O=C(Nc1nc(-c2cccc3ccccc23)cs1)c1cc([N+](=O)[O-])ccc1Cl [Example 41, N-[4-(1-Naphthyl)thiazol-2-yl]-(2-chloro-5-nitrophenyl)carboxamide] | 30% | 118% | 
10 | CCc1ccc(-c2csc(NC(=O)c3cc([N+](=O)[O-])ccc3Cl)n2)cc1 [Example 44, N-[4-(4-Ethylphenyl)thiazol-2-yl]-(2-chloro-5-nitrophenyl)carboxamide] | 18% |  | 
11 | Cc1ccc(-c2nc(NC(=O)c3cc([N+](=O)[O-])ccc3Cl)sc2C)cc1Cl [Example 46, N-[4-(3-Chloro-4-methylphenyl)-5-methylthiazol-2-yl]-(2-chloro-5-nitrophenyl)carboxamide] | 30.7% | 124% | 
12 | Cc1nc(NC(=O)c2cc([N+](=O)[O-])ccc2Cl)sc1C [Example 47] | 16.7% | 141% | 
13 | Cc1ccc(NC(=O)c2cc([N+](=O)[O-])ccc2Cl)nc1 [Example 52, N-(5-Methylpyridin-2-yl)-(2-chloro-5-nitrophenyl)carboxamide] | 16.2% | 133% | 
14 | O=C(Nc1c(Cl)ncnc1Cl)c1cc([N+](=O)[O-])ccc1Cl [Example 81, N-(4,6-Dichloropyrimidin-5-yl)-(2-chloro-5-nitrophenyl)carboxamide] | 32% |  | 
15 | O=C(Nc1nc(-c2ccc(F)c(F)c2)cs1)c1cc([N+](=O)[O-])ccc1Cl [Example 111, N-[4-(3,4-Difluorophenyl)thiazol-2-yl]-(2-chloro-5-nitrophenyl)carboxamide] | 28.7% |  | 
16 | CN(C)c1cccc(NC(=O)c2cc([N+](=O)[O-])ccc2Cl)c1 [Example 176, N-(3-Dimethylamino)phenyl-(2-chloro-5-nitrophenyl)carboxamide] |  | 118% | 
17 | O=C(Nc1ccc(S(=O)(=O)Nc2ccc(N3CCOCC3)cc2)cc1)c1cc([N+](=O)[O-])ccc1Cl [Example 179, N-[4-[4-(Morpholin-4-yl)phenyl]aminosulfonyl]phenyl-(2-chloro-5-nitrophenyl)carboxamide] |  | 128% | 
18 | CCCNc1ccc(NC(=O)c2cc([N+](=O)[O-])ccc2Cl)cc1 [Example 181, N-[4-(N-Propylamino)phenyl]-(2-chloro-5-nitrophenyl)carboxamide] |  | 128% | 
19 | CCCCCCNc1ccc(-c2ccc(NC(=O)c3cc([N+](=O)[O-])ccc3Cl)cc2)cc1 [Example 195, N-[4-[4-(N-Hexylamino)phenyl]phenyl]-(2-chloro-5-nitrophenyl)carboxamide] | 16.1% |  | 
20 | CCCCCCN(C)c1ccc(-c2ccc(NC(=O)c3cc([N+](=O)[O-])ccc3Cl)cc2)cc1 [Example 196, N-[4-[4-(N-Hexyl-N-methylamino)phenyl]phenyl]-(2-chloro-5-nitrophenyl)carboxamide] | 15.3% |  | 
21 | CCCCCCN(CC)c1ccc(-c2ccc(NC(=O)c3cc([N+](=O)[O-])ccc3Cl)cc2)cc1 [Example 197, N-[4-[4-(N-Ethyl-N-hexylamino)phenyl]phenyl]-(2-chloro-5-nitrophenyl)carboxamide] | 21.6% |  | 
22 | CCCCCCCCNc1ccc(-c2ccc(NC(=O)c3cc([N+](=O)[O-])ccc3Cl)cc2)cc1 [Example 219, N-[4-[4-(N-Octylamino)phenyl]phenyl]-(2-chloro-5-nitrophenyl)carboxamide] | 21.7% |  | 
23 | CCCCCCCCN(CCCCCC)c1ccc(-c2ccc(NC(=O)c3cc([N+](=O)[O-])ccc3Cl)cc2)cc1 [Example 220, N-[4-[4-(N-Hexyl-N-octylamino)phenyl]phenyl]-(2-chloro-5-nitrophenyl)carboxamide mono-hydrochloride] | 16.3% |  | 
24 | CCCCCCCCN(CCCC)c1ccc(-c2ccc(NC(=O)c3cc([N+](=O)[O-])ccc3Cl)cc2)cc1.Cl [Example 223, N-[4-[4-(N-Butyl-N-octylamino)phenyl]phenyl]-(2-chloro-5-nitrophenyl)carboxamide mono-hydrochloride] | 28.2% |  | 
25 | CCCCCCCCN(CCC)c1ccc(-c2ccc(NC(=O)c3cc([N+](=O)[O-])ccc3Cl)cc2)cc1 [Example 224, N-[4-[4-(N-Octyl-N-propylamino)phenyl]phenyl]-(2-chloro-5-nitrophenyl)carboxamide] | 22.4% |  | 
26 | CC(C)(C)OC(=O)Nc1cccc(-c2csc(NC(=O)c3cc([N+](=O)[O-])ccc3Cl)n2)c1 [Example 234, N-[4-(3-tert-Butoxycarbonylaminophenyl)thiazol-2-yl]-(2-chloro-5-nitrophenyl)carboxamide] | 32.5% |  | 
27 | CS(=O)(=O)N(c1ccc(-c2ccc(NC(=O)c3cc([N+](=O)[O-])ccc3Cl)cc2)cc1)S(C)(=O)=O [Example 235, N-[4-[4-(N,N-Dimethanesulfonylamino)phenyl]phenyl]-(2-chloro-5-nitrophenyl)carboxamide] | 40.2% |  | 
28 | O=C(Nc1ccc(CCNC(=S)Nc2cccnc2)cc1)c1cc([N+](=O)[O-])ccc1Cl [Example 273, N-[4-[2-(Pyridin-3-yl)aminothiocarbonylaminoethyl]phenyl]-(2-chloro-5-nitrophenyl)carboxamide] | 19.9% |  | 
29 | N-[4-(Pyrrolidinylsulfonyl)phenyl]-(2-chloro-5-nitrophenyl)carboxamide [Example 152] |  |  | 112.7%
